Reference: patent US9447108B2 (SZEGEDI TUDOMÁNYEGYETEM, priority 2013, dated 2016)
Read-outs that look alike come from different tables or passages of the source.

Experiments:
δ-opioid receptors = biological target: T1, δ-opioid receptors (Rattus norvegicus, UniProt P33533); assay: Receptor binding assay, [3H]Ile5,6-deltorphin-2 displacement in rat brain membranes
T1 construct: A crude membrane fraction was prepared from Wistar rat brains and spinal cords; from tissue; host or cells: Wistar rat brain (without cerebellum), crude membrane fraction

μ-opioid receptors = biological target: T2, μ-opioid receptors (Rattus norvegicus, UniProt P33535); assay: Receptor binding assay, [3H]DAMGO displacement in rat brain membranes; conditions: for Ki^δ/Ki^μ: selectivity ratio δ/μ
T2 construct: A crude membrane fraction was prepared from Wistar rat brains and spinal cords; from tissue; host or cells: Wistar rat brain (without cerebellum), crude membrane fraction

rats = assay: Behavioral nociceptive testing, paw-withdrawal test (PWD), heat pain threshold; type: in vivo, rat; conditions: for antinociception, potency and dose dependence: s.c., 0.3-10 mg/kg
Description: The paw-withdrawal test (PWD) was used to measure the heat pain threshold after the treatments. A detailed description of this model was published by Hargreaves et al. (Hargreaves, K.; Dubner, R.; Brown, F.; Flores, C.; Joris, J. Pain; 32, 77 1988). Briefly, rats were placed on a glass surface in a plastic chamber and were allowed to acclimatize to their environment for 15-30 min before testing. The baseline hind paw-withdrawal latencies (baseline values at 0 min determined two times) were then obtained. A heat stimulus was directed onto the plantar surface of each hind paw and the intensity of the thermal stimulus was adjusted to derive an average baseline latency of approximately 10 s (cut-off time 20 s). Then the animals were treated subcutaneously with different doses of ligands (0.3-10 mg/kg). The nociceptive threshold was determined at 15-min intervals for 120 min.
Data are presented as means±SEM. The mean of the two sides and the mean of two time points (15-30; 45-60; 75-90 and […]) were evaluated. The results were analyzed using a two-way ANOVA (ANalysis Of VAriances) (factors: treatment and time with repeated measurements). Subsequent analysis was performed using Fisher-LSD test. A p-value less than 0.05 was considered significant. Data were analyzed using […] 7.1. software (Statsoft Inc., Tulsa, Okla.).

[1] = 10 mg/kg s.c., 0 min (baseline)

T1 sequence (P33533 whole entry): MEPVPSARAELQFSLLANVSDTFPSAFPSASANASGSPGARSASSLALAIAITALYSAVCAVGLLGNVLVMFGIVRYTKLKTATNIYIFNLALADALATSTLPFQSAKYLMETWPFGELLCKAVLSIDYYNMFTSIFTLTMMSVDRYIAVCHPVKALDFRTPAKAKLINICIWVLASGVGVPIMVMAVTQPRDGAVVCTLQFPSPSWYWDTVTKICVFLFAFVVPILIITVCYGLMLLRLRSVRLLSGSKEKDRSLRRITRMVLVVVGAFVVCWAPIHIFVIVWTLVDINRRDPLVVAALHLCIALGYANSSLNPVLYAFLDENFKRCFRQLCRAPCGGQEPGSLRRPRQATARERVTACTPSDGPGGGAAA
T2 sequence (P33535 whole entry): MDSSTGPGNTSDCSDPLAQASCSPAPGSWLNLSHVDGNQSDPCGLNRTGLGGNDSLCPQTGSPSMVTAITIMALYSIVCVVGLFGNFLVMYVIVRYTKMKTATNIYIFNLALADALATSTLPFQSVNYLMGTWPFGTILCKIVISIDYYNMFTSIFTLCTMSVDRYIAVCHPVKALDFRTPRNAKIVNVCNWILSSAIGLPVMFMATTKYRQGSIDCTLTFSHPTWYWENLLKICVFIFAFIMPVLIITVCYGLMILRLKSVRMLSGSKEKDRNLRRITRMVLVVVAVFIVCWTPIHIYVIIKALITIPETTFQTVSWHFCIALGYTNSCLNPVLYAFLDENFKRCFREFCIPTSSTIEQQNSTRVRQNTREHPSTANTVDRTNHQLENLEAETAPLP

| Molecule | Ki (δ-opioid receptors) | Ki (μ-opioid receptors) | affinity to μ-opioid receptors compared to the corresponding hydrogenated derivative (μ-opioid receptors; in words) | Time course of the antinociceptive effects (paw-withdrawal latency) (rats; 3 mg/kg s.c., 0 min (baseline)) | Time course of the antinociceptive effects (paw-withdrawal latency) (rats; 3 mg/kg s.c., 30 min) | Time course of the antinociceptive effects (paw-withdrawal latency) (rats; 3 mg/kg s.c., 60 min) | Time course of the antinociceptive effects (paw-withdrawal latency) (rats; 3 mg/kg s.c., 90 min) | Time course of the antinociceptive effects (paw-withdrawal latency) (rats; 3 mg/kg s.c., 120 min) | Time course of the antinociceptive effects (paw-withdrawal latency) (rats; [1]) | Time course of the antinociceptive effects (paw-withdrawal latency) (rats; 10 mg/kg s.c., 30 min) | Time course of the antinociceptive effects (paw-withdrawal latency) (rats; 10 mg/kg s.c., 60 min) | Time course of the antinociceptive effects (paw-withdrawal latency) (rats; 10 mg/kg s.c., 90 min) | Time course of the antinociceptive effects (paw-withdrawal latency) (rats; 10 mg/kg s.c., 120 min) | antinociceptive effect compared to non-deuterated analogues (rats; 10 mg/kg s.c., in words) | antinociception, potency and dose dependence (rats; in words) | affinity to μ-opioid receptors compared to morphine (μ-opioid receptors; in words) | Ki^δ/Ki^μ (μ-opioid receptors) | duration of antinociceptive effect compared to other drugs (rats; 3 mg/kg s.c., in words) | Ki (δ-opioid receptors; [3H]Ile5,6-deltorphin-2, rat brain membranes, read-out: Ki^δ) | Ki (μ-opioid receptors; [3H]DAMGO, rat brain membranes, read-out: Ki^μ) |
| --- | --- | --- | --- | --- | --- | --- | --- | --- | --- | --- | --- | --- | --- | --- | --- | --- | --- | --- | --- | --- |
| [2H][C@@H]1[C@H]([2H])[C@H]2[C@H]3Cc4ccc(OC)c5c4[C@@]2(CCN3C)[C@@H](O5)[C@H]1O [Example 2, (5α,6α,7β,8β)-4,5-epoxy-6-hydroxy-3-methoxy-17-methyl-(7,8-^2H2)-morphinan] | > 10000 nM | 34.1 ± 1.08 nM | higher affinity to μ-opioid receptors than the corresponding hydrogenated derivatives | 9.9 s | 12.1 s | 11.9 s | 11.7 s | 11.8 s | 10.1 s | 14.2 s | 14.8 s | 14.9 s | 14.1 s | increased and prolonged the effect | lower potency |  |  |  |  |  |
| [2H][C@@H]1[C@H]([2H])[C@H]2[C@H]3Cc4ccc(OC(C)=O)c5c4[C@@]2(CCN3C)[C@@H](O5)[C@H]1OC(C)=O [Example 4, (5α,6α,7β,8β)-3,6-diacetoxy-4,5-epoxy-17-methyl-(7,8-^2H2)-morphinan] | 211 ± 24 nM | 2.89 ± 0.7 nM |  | 9.7 s | 19.7 s | 17.9 s | 14.3 s | 11.4 s |  |  |  |  |  |  | more potent | higher affinity to μ-opioid receptors than the morphine | 73 | more prolonged effects compared to other drugs |  |  |
| [2H][C@H]1C(=O)[C@@H]2Oc3c(OC)ccc4c3[C@@]23CCN(C)[C@H](C4)[C@]3(O)[C@H]1[2H] [Example 5, (5α,7β,8β,14β)-4,5-epoxy-14-hydroxy-3-methoxy-17-methyl-(7,8-^2H2)-morphinan-6-one] |  |  |  | 9.9 s | 13.3 s | 13.7 s | 13.6 s | 12.1 s |  |  |  |  |  |  |  |  |  |  |  |  |
| CN1CC[C@]23c4c5ccc(O)c4O[C@H]2[C@@H](O)C=C[C@H]3[C@H]1C5 [Morphine] |  |  |  | 10.1 s | 14.4 s | 13.9 s | 13.2 s | 12.8 s | 9.9 s | 18.2 s | 18.8 s | 14.4 s | 10.5 s |  |  |  |  |  |  |  |
| COc1ccc2c3c1O[C@H]1C(=O)CC[C@@]4(O)[C@@H](C2)N(C)CC[C@]314 [Oxycodone] |  |  |  | 9.8 s | 12.2 s | 12.6 s | 11.9 s | 10.6 s |  |  |  |  |  |  |  |  |  |  |  |  |
| (5α,6α,7β,8β)-4,5-epoxy-3-ethoxy-6-hydroxy-17-methyl-(7,8-^2H2)-morphinan [Example 3] |  |  |  | 10.0 s | 12.2 s | 11.6 s | 11.4 s | 11.1 s | 10.1 s | 12.1 s | 13.1 s | 12.9 s | 11.1 s | increased and prolonged the effect | lower potency |  | 30 |  | 6120 ± 845 nM | 205 ± 63.1 nM |
